Assay results reported in patent US6841172B1, “Method for iron delivery to a patient by transfer from dialysate” (HemoCleanse, Inc., priority 1996, dated 2005).

Experiments:
[1] = Transfer of ferrous gluconate from dialysate into blood by hemodialysis through a PAN membrane dialyzer; type: in vitro ADME, bovine
Experimental: A two liter volume of bovine blood (hematocrit adjusted from 49 to 40 with saline) which had been stored with heparin anticoagulation for 24 hours was dialyzed using a PAN membrane dialyzer. The volume was maintained at 2 liters throughout the experiment by adding saline.
A sample of the blood was taken prior to dialysis of the blood and tested for iron content. The iron content of the pre-dialysis blood was 110 μg/dl and the transferrin iron binding capacity was 234 μg/dl. Dialysis was then started using the following equipment and conditions:
The circuit was primed with dialysate, prepared as described above, pumps were adjusted for proper flow, and then the blood side was drained of dialysate by pulling the Blood In tube out of the dialysis bath and allowing air to fill this side.
Assays were performed to determine plasma iron concentrations at 0, 5, 10, 20 and 30 minutes. […] This transfer indicates an avidity of plasma for the iron complex, even higher than the iron binding capacity of transferrin.

[2] = tested on: red blood cells; assay: Monitoring of hemolysis in experimental dialysis (plasma absorbance at 420 and 585 nm); design: species or system bovine; details: compared with similar experiments without iron in the dialysate
Text: To determine whether the method of Example 1 would cause hemolysis (lysis of red blood cells with the liberation of hemoglobin), absorbance data at 420 and 585 nm was collected for the plasma at various stages of the experiment described in Example 1.

Substance: ferrous gluconate
- plasma iron level ([1]; after 30 minutes of dialysis, dialysate iron 125 μg/dl, pre-dialysis blood iron 110 μg/dl, transferrin iron binding capacity 234 μg/dl): ~500 µg/dL
- percent saturation of transferrin ([1]; after only a few minutes of hemodialysis, dialysate iron 125 μg/dl): 100%
- iron transferred per dialysis treatment ([1]; dialysate ferrous gluconate increased to 4 mg/dl): 15 mg
- iron transferred to the plasma ([1]; if the initial rate of iron transfer is continued for 180 minutes, dialysate 1 mg/dl ferrous gluconate): approximately 4 mg
- level of hemolysis during dialysis [2]: not higher than that of similar experiments conducted without iron in the dialysate
